Measurements from the NIST ThermoML archive (doi:10.1021/je0340755).

Experiment: xn = mol fraction of the nth substance listed
Details: 101.3 kPa, Liquid; for viscosity: Capillary tube (Ostwald / Ubbelohde) method

CC(O)C(C)O (configuration not stated) [2,3-butanediol] + O
Details | mass density, 318.15 K [kg/m3] | mass density, 328.15 K [kg/m3] | mass density, 338.15 K [kg/m3] | speed of sound, 318.15 K [m/s] | speed of sound, 328.15 K [m/s] | speed of sound, 338.15 K [m/s] | viscosity, 328.15 K [mPa·s] | viscosity, 338.15 K [mPa·s]
x2 = 0.0546 | – | 971.78 | 963.14 | – | 1397.7 | 1379 | 7.267 | 4.899
x2 = 0.1435 | – | 973.84 | 965.14 | – | 1413.9 | 1394.6 | 6.438 | 4.365
x2 = 0.2458 | – | 976.48 | 967.72 | – | 1431.2 | 1410.6 | 5.44 | 3.722
x2 = 0.3539 | – | 979.73 | 970.91 | – | 1456.9 | 1433.2 | 4.404 | 3.054
x2 = 0.4502 | – | 983.14 | 974.25 | – | 1482.2 | 1457.5 | 3.532 | 2.49
x2 = 0.4989 | – | 985.04 | 976.14 | – | 1494.1 | 1468.9 | 3.117 | 2.221
x2 = 0.5503 | – | 987.17 | 978.26 | – | 1508.7 | 1482.2 | 2.705 | 1.951
x2 = 0.6581 | 1004.28 | 991.86 | 982.97 | 1566 | 1537.6 | 1510.5 | 1.94 | 1.447
x2 = 0.7518 | 1007.26 | 995.6 | 986.9 | 1595.2 | 1567.1 | 1540 | 1.412 | 1.089
x2 = 0.8626 | 1007.49 | 997.57 | 989.57 | 1605.3 | 1596.6 | 1573.7 | 0.954 | 0.768
x2 = 0.9092 | 1005.07 | 996.39 | 988.99 | 1598.9 | 1594.5 | 1577.3 | 0.802 | 0.656
x2 = 0.9148 | 1004.61 | 996.11 | 988.8 | 1596.7 | 1592.9 | 1576 | 0.784 | 0.644
x2 = 0.9248 | 1003.67 | 995.52 | 988.39 | 1596.3 | 1590.3 | 1576.1 | 0.753 | 0.621
x2 = 0.9305 | 1003.07 | 995.13 | 988.1 | 1590.4 | 1585.9 | 1572.2 | 0.735 | 0.608
x2 = 0.935 | 1002.56 | 994.78 | 987.85 | 1583.1 | 1570.1 | 1559.7 | 0.721 | 0.598
x2 = 0.9452 | 1001.27 | 993.9 | 987.18 | 1580.2 | 1574.2 | 1564.6 | 0.689 | 0.573
x2 = 0.9542 | 999.96 | 992.98 | 986.46 | 1578.1 | 1573 | 1566.2 | 0.661 | 0.552
x2 = 0.9703 | 997.18 | 990.96 | 984.86 | 1571.6 | 1570.4 | 1566.1 | 0.607 | 0.513
x2 = 0.98 | 995.19 | 989.48 | 983.67 | 1558.5 | 1561.6 | 1561.3 | 0.574 | 0.49
x2 = 0.9903 | 992.79 | 987.67 | 982.18 | 1548.2 | 1553.7 | 1556.6 | 0.539 | 0.463
x2 = 0.9925 | 992.23 | 987.24 | 981.83 | 1544.5 | 1551.3 | 1555.4 | 0.531 | 0.458
x2 = 0.9951 | 991.55 | 986.72 | 981.4 | 1540 | 1548.3 | 1552.7 | 0.521 | 0.451
